Test results reported in US20110300199A1, “PEPTIDES USED IN THE TREATMENT AND/OR CARE OF THE SKIN, MUCOUS MEMBRANES AND/OR SCALP AND THEIR USE IN COSMETIC OR PHARMACEUTICAL COMPOSITIONS” (LIPOTEC, S.A., priority 2009, published 2011).
pIC50: −log10 of the molar value. Non-standard residues stand in square brackets, D forms with d. Phg = N[C@H](C(=O)O)c1ccccc1

Test system: Human dermal fibroblasts
Test: Collagen synthesis stimulation assay (secreted Collagen Type I by ELISA)
Format: cell-based
Details: peptides at 15 μg/ml, 48 h, medium analysed by ELISA; normalized to vehicle negative control
Experimental: Human dermal fibroblasts were grown until confluence in MI06 medium supplemented with specific growth factors for fibroblasts. Then, they were strypsinized and seeded at 5×10^4 cells/well in 24-well plates. After 24 h of incubation at 37° C. in 5% CO2 atmosphere, fresh medium was added with scalar dilutions of the peptides at 15 μg/ml or with vehicle as negative control. Cells were incubated for 48 additional hours, after which medium was collected.
The analysis of the amount of secreted Collagen Type I was performed by means of an ELISA assay. Briefly, 96-well plated were coated with 50 μL per well of the previously collected medium and allowed to adsorb overnight at 4° C. in a humidified atmosphere. Then the plates were washed 3 times with PBS (+0.05% Tween-20) and blocked for 1 h with 3% BSA. After blocking, the plates were treated with an anti-Collagen Type I antibody (1:1000 in PBS, 0.05% Tween-20, 1% BSA) for 2 h. After this incubation, the secondary antibody (goat anti-mouse IgG-HRP antibody, Molecular Probes, 1:1000 in PBS, 0.05% Tween-20, 1% BSA) was added. Plates were incubated with […] substrate for 30 min and the reaction was stopped by adding 3 M H2SO4. Absorbance at 490 nm was read using a microplate reader and collagen concentration determined using a linear regression standard curve for Collagen Type I. Values were normalized in respect to the collagen values for the negative control experiment and the increase in the Collagen Type I was calculated for all the treatments.

Row | Substance | Increase of Collagen Type I by treatment with the peptides
1 | H-L-Arg-Phg-L-Trp-Phg-OH | 99%
2 | H-L-Arg-Phg-L-Val-Gly-OH | 16%
3 | H-L-Arg-Phg-L-Val-Phg-OH | 18%

Target: T1, Human neutrophil elastase (Homo sapiens, UniProt P08246)
T1 sequence (P08246 30-267): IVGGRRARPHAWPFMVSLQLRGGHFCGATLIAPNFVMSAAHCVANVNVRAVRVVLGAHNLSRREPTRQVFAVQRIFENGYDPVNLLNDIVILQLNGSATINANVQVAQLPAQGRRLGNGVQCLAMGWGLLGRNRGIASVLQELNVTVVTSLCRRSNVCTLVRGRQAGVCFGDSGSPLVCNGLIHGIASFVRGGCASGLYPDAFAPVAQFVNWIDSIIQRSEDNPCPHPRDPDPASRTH
Test: Human elastase inhibition assay (fluorogenic substrate MeOSuc-Ala-Ala-Pro-Val aminomethyl coumarin)
Format: biochemical
Details: 0.2 μg/ml protease, peptides 0.05-2 mM, 1 hour preincubation, substrate 25 μg/mL, 2 h; read-out: IC50 (minimum inhibitory concentration of peptides against human elastase)
Experimental: Human neutrophil elastase was reconstituted at 5 μg/mL in 50 mM sodium acetate, 200 mm NaCl, pH 5.5 buffer. 0.2 μg/ml of protease were preincubated with the peptides at a final concentration of 0.05-2 mM in a black microplate with 96 wells for 1 hour at room temperature. After preincubation, 25 μg/mL of substrate (MeOSuc-Ala-Ala-Pro-Val aminomethyl coumarin) were added to the wells and the samples were incubated for 2 h at room temperature and protected from light. The fluorescence released by digestion of the substrate was measured with an automated multiplate fluorescence reader, exciting at 370 nm and reading at 460 nm.
The results were corrected from the baseline fluorescence value in the absence of elastase and product, and were normalized with respect to the fluorescence of the control, and the minimum inhibitory concentration for each of the peptides was determined.

Row | Substance | pIC50
4 | H-L-Arg-Phg-L-Trp-Phg-OH | 3.99
5 | H-L-Arg-Phg-L-Val-Gly-OH | 3.39
6 | H-L-Arg-Phg-L-Val-Phg-OH | 4.03

Target: T2, elastase (Sus scrofa, UniProt P00772)
T2 construct: purchased Molecular Probes
Test: Elastase inhibition assay (EnzChek Elastase Assay Kit, DQ Elastin substrate)
Format: biochemical
Details: peptides at 0.1 mM, pre-incubated 1 hour with 0.4 unit/mL elastase; DQ Elastin 25 μg/mL, 2 h; normalized to baseline
Experimental: The peptides were resuspended in water in the presence of 0.5% DMSO. The assay was conducted on black microplates with 96 wells using the EnzChek® Elastase Assay Kit (Molecular Probes). For this purpose, the peptides were pre-incubated at 0.1 mM for 1 hour with 0.4 unit/mL of elastase at room temperature with moderate stirring, after which the conjugated substrate was added to fluorescein (DQ™ Elastin) at a final concentration of 25 μg/mL and reactions were incubated for 2 h at room temperature with stirring and protected from light. The substrate, whose fluorescence is inhibited, is digested by elastase to release fluorescent fragments which are monitored by fluorescence with a FLUOstar galaxy reader (BMG LabTechnologies) using 485 nm filters for excitation and 530 nm filters for emission.
Inhibition values were normalized with respect to baseline values of average inhibition.

T2 sequence (P00772 27-266): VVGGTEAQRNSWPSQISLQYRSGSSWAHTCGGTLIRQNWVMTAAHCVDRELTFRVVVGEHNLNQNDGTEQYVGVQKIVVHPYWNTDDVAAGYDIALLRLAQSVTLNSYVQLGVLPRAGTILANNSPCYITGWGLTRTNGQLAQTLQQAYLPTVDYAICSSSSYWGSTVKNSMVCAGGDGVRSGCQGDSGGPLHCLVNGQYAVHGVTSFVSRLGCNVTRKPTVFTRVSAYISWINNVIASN

Row | Elastase inhibition percentage (% inhibition) | Substance
7 | 53.7% | Ac-L-Arg-Phg-L-Trp-Phg-NH—(CH2)15—CH3
8 | 90.3% | Ac-L-Arg-Phg-L-Trp-Phg-OH
9 | 82.3% | Ac-L-Arg-Phg-L-Val-Phg-OH
10 | 69.6% | Ac-L-Nle-Phg-L-Trp-Gly-OH
11 | 90.0% | Ac-L-Nle-Phg-L-Trp-Phg-OH
12 | 62.7% | Ac-L-Nle-Phg-L-Val-Gly-OH
13 | 73.8% | Ac-L-Nle-Phg-L-Val-Phg-OH
14 | 45.1% | Ac-Phg-L-Trp-Phg-OH
15 | 65.0% | Ac-Phg-Phg-L-Trp-Gly-OH
16 | 84.2% | Ac-Phg-Phg-L-Trp-Phg-OH
17 | 76.1% | Ac-Phg-Phg-L-Val-Phg-OH
18 | 81.4% | Ac-R[Phg]VG-OH
19 | 66.9% | Ac-R[Phg]WG-OH
20 | 64.2% | Ac-[Phg][Phg]VG-OH
21 | 57.1% | Palm-L-Arg-Phg-L-Trp-Phg-NH2
